The numbers were not newly measured in US6740517B2, “Incubation method for obtaining solid culture of Zang Zhi, solid culture obtained therefrom, processed products and use thereof” (priority 2001, dated 2004), which cites them from elsewhere.

For data set [1], the system named is lymphoma cells of a p-388 mouse.
Data set [2] has as its system mouse with the acute hepatitis induced by CCl4.

For the compound `C=C(CC[C@@H](C)[C@H]1CC[C@H]2C3=C(C(=O)C[C@]12C)[C@@]1(C)CCC(=O)[C@@H](C)[C@@H]1CC3=O)C(C)C(=O)O` (stereo partly drawn) [Zhankuic acid A], the “inhibition to agglutination of blood platelets” value in the data set on blood platelets is “conspicuous inhibition”. Also, the “inhibition to the lymphoma cells of a p-388 mouse” value in data set [1] was “conspicuous inhibition”.
In the case of 3,11-dioxo-8,23-dien-26-oic acid, in data set [2], the “GPT in the blood” value was “reduce GPT”.
